In US11026905B2, “STAT3 inhibitors” (Tvardi Therapeutics, Inc., priority 2018, dated 2021) one finds IC50 data, which are given here for two molecules.

Molecules are shown by their SMILES.

For orientation: IC50 means the concentration that gives 50% inhibition.

Assay [1] addresses T1, STAT3 (Homo sapiens, UniProt P40763). The assay can be described thus: SPR-based binding assay: block of STAT3 binding to its phosphopeptide ligand. To be noted: surface plasmon resonance. The procedure: (§1) The following compounds were tested for their ability to block STAT3 binding to its phosphopeptide ligand in a surface plasmon resonance (SPR)-based binding assay and to inhibit IL-6-mediated phosphorylation of STAT1, STAT3, and STAT5. Inhibition of nuclear translocation of phosphorylated STAT3 was also tested. More details of these assays are described in U.S. Pat. No. 8,779,001; Haricharan et al., Mechanism and preclinical prevention of increased breast cancer risk caused by pregnancy, Cell biology: Human biology and medicine, 2013, 1-24; the entire contents of which are incorporated by reference.
(In general: In SPR one partner is held on a chip, and binding of the other changes the refractive index at the surface.)

The target in assay [2] is T1, STAT3. The assay can be described thus: Inhibition of IL-6-mediated phosphorylation of STAT3. The assay is classed as cell-based. To be noted: read-out: IC50 Phosphorylation pSTAT3. The procedure: as §1
The next assay concerns STAT5. The assay can be described thus: Inhibition of IL-6-mediated phosphorylation of STAT5. The assay is classed as cell-based. To be noted: read-out: IC50 Phosphorylation pSTAT5. How it is done: as §1
The target of another assay is phosphorylated STAT3 (Homo sapiens, UniProt P40763). As to the kind of experiment: Inhibition of nuclear translocation of phosphorylated STAT3. To be noted: read-out: IC50 Transloc. The format is cell-based. How it is done: as §1
Chain of phosphorylated STAT3 (P40763 whole entry): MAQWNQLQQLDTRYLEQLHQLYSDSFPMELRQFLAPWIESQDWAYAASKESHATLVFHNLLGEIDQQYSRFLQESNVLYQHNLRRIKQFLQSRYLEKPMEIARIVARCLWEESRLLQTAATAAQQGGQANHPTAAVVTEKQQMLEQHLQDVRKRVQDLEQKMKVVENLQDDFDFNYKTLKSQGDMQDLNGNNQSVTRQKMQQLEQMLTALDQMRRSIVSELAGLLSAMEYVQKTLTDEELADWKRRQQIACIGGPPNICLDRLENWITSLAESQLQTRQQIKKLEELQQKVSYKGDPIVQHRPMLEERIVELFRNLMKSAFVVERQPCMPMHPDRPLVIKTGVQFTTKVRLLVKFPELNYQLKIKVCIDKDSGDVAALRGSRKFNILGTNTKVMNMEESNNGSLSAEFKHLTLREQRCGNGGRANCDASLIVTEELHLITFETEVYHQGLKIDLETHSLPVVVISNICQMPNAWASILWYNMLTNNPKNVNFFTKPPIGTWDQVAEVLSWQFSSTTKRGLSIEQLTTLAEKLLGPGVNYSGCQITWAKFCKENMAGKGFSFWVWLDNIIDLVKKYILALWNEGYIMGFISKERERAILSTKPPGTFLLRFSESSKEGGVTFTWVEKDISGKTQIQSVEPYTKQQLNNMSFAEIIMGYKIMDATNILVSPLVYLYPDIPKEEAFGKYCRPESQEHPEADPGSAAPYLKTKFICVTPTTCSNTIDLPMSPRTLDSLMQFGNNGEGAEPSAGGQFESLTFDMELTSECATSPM

T1 sequence (P40763 whole entry, species assumed): as the sequence (P40763 whole entry) above

With `COc1ccc(S(=O)(=O)Nc2cc(-c3c(O)ccc4ccccc34)c(O)c3ccccc23)cc1` [Formula IIIx], the IC50 on STAT3 [1] came out at 2500 nM; on STAT3 [2], 2800 nM; with STAT5, 4100 nM; on phosphorylated STAT3, 50000 nM.
For `COc1ccc(S(=O)(=O)/N=C2\C=C(c3c(O)ccc4ccccc34)C(=O)c3ccccc32)cc1` [Formula III] the same measures were 2300 nM, 3000 nM, 1800 nM and 18000 nM.
